According to patent US20260151360A1, “ENDOXIFEN COMPOSITIONS AND METHODS OF USE THEREOF AND SYNTHESIS THEREOF” (Atossa Therapeutics, Inc., priority 2023, published 2026):
Where two headings read alike, the source gives them in different places.

Key:
[1] = Plasma pharmacokinetics of endoxifen after administration of the compositions; assay type: in vivo; conditions: for AUC(0-t): read-out: mean AUC24hr; for half-life: endoxifen released from a composition disclosed herein
[2] = (Z)-Endoxifen solubility in dissolution media (pH 6.8 buffer with and without Polysorbate 80); assay type: physicochemical
Procedure: This example describes development of a dissolution assay to measure dissolution of endoxifen formulations. […] Polysorbate 80 (PS80), a nonionic surfactant, was added in varying concentrations to improve solubility and mimic an intestinal environment. Surfactants, such as polysorbate 80, create micelles in the medium that mimic the bile acid aggregates in the small intestine. These micelles facilitate the diffusion and transport of product into the medium.

[3] = cited from earlier work

Question: Which AUC(0-t) ([1]; human, plasma, Day 1 of initial (first) dose, composition comprising 1 mg to 4 mg of (Z)-endoxifen) does the source give for `CC/C(=C(\c1ccc(O)cc1)c1ccc(OCCNC)cc1)c1ccccc1` [(Z)-endoxifen] here?
Answer: The AUC(0-t) was 150 to 600 ng·h/mL.

Question: What about the AUC(0-t) ([1]; human, plasma, Day 21, compositions comprising 1 mg to 4 mg of (Z)-endoxifen) of the same compound?
Answer: Its AUC(0-t) is 400 to 2500 ng·h/mL.

Question: And the AUC(0-inf) ([1]; human, plasma, dosing range of 1 mg to 4 mg of (Z)-endoxifen)?
Answer: The AUC(0-inf) was 400 to 6000 ng·h/mL.

Question: Which results are given for `CC/C(=C(\c1ccc(O)cc1)c1ccc(OCCNC)cc1)c1ccccc1` [endoxifen, 4-hydroxy-N-desmethyl-tamoxifen]?
Answer: solubility as a function of pH [2]: decreases as pH becomes less acidic; day by which steady state plasma levels are achieved ([1]; daily administration of a composition): ≤ 7 days; half-life ([1]; human, plasma, read-out: mean half-life): 40 to 53 h; half-life ([1]; human, plasma, read-out: terminal elimination half-life): 30 to 60 h

Question: Which results are given for `CC/C(=C(\c1ccccc1)c1ccc(OCCN(C)C)cc1)c1ccccc1` [tamoxifen, (Z)-2-[4-(1,2-diphenyl-1-butenyl)phenoxy]-N,N-dimethylethanamine]?
Answer: Terminal elimination half-life ([3]; Jordan C. Steroids 2007): 120 to 170 h; peak concentration time ([3]; post-dose): approximately 5 hours; Reported therapeutic levels of plasma tamoxifen ([3]; subjects dosed with 20 mg of oral tamoxifen (Lyon et al. 2012)): ≥ 30 nM
